PubChem BioAssay (NCI)
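All cell lines were grown in 96-well plates and treated with compound for 48 hours. GI50: concentration for 50% inhibition of growth. The concentration for full growth arrest is given as TGI.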

Legend:
Assay in all cases: NCI tumour cell line growth inhibition, 48 h
UACC-257 melanoma = system: UACC-257 melanoma
MDA-MB-231 breast = system: MDA-MB-231 breast
SF-268 CNS = system: SF-268 CNS
NCI-H23 lung = system: NCI-H23 lung
SK-MEL-5 melanoma = system: SK-MEL-5 melanoma
OVCAR-4 ovarian = system: OVCAR-4 ovarian
K-562 leukemia = system: K-562 leukemia
A549 NSCLC = system: A549 NSCLC
MCF7 breast = system: MCF7 breast
HS 578T breast = system: HS 578T breast
OVCAR-8 ovarian = system: OVCAR-8 ovarian
HOP-92 NSCLC = system: HOP-92 NSCLC
KM12 colon = system: KM12 colon
CCRF-CEM leukemia = system: CCRF-CEM leukemia
SF-539 CNS = system: SF-539 CNS
SK-MEL-2 melanoma = system: SK-MEL-2 melanoma
SN12C renal = system: SN12C renal
DU-145 prostate = system: DU-145 prostate
HL-60(TB) leukemia = system: HL-60(TB) leukemia
SF-295 CNS = system: SF-295 CNS
SK-MEL-28 melanoma = system: SK-MEL-28 melanoma
HCT-15 colon = system: HCT-15 colon
LOX IMVI melanoma = system: LOX IMVI melanoma
UO-31 renal = system: UO-31 renal
ACHN renal = system: ACHN renal
U251 CNS = system: U251 CNS
SW-620 colon = system: SW-620 colon
UACC-62 melanoma = system: UACC-62 melanoma
SNB-19 CNS = system: SNB-19 CNS
SNB-75 CNS = system: SNB-75 CNS
SK-OV-3 ovarian = system: SK-OV-3 ovarian
A498 renal = system: A498 renal
OVCAR-3 ovarian = system: OVCAR-3 ovarian
SR leukemia = system: SR leukemia
COLO 205 colon = system: COLO 205 colon
NCI-H460 lung = system: NCI-H460 lung
TK-10 renal = system: TK-10 renal
NCI-H226 lung = system: NCI-H226 lung
786-0 renal = system: 786-0 renal
NCI-H522 lung = system: NCI-H522 lung
M14 melanoma = system: M14 melanoma
HCC-2998 colon = system: HCC-2998 colon
BT-549 breast = system: BT-549 breast
RXF 393 renal = system: RXF 393 renal
MOLT-4 leukemia = system: MOLT-4 leukemia
IGROV1 ovarian = system: IGROV1 ovarian
RPMI-8226 leukemia = system: RPMI-8226 leukemia
HT29 colon = system: HT29 colon
HCT-116 colon = system: HCT-116 colon
HOP-62 NSCLC = system: HOP-62 NSCLC
T-47D breast = system: T-47D breast
OVCAR-5 ovarian = system: OVCAR-5 ovarian
PC-3 prostate = system: PC-3 prostate
MDA-MB-435 = system: MDA-MB-435

CO/C=C/C(=O)c1cc2cnc3c(=N)cc(NC(=O)C(C)C)c([nH]1)c23
GI50 (UACC-257 melanoma): 90.1 nM | TGI (UACC-257 melanoma): 862 nM | GI50 (MDA-MB-231 breast): 88.3 nM | TGI (MDA-MB-231 breast): 660 nM | GI50 (SF-268 CNS): 61.6 nM | TGI (SF-268 CNS): 918 nM | GI50 (NCI-H23 lung): 43.2 nM | TGI (NCI-H23 lung): 1830 nM | GI50 (SK-MEL-5 melanoma): 75 nM | TGI (SK-MEL-5 melanoma): 183 nM | GI50 (OVCAR-4 ovarian): 63.7 nM | TGI (OVCAR-4 ovarian): 746 nM | GI50 (K-562 leukemia): 117 nM | TGI (K-562 leukemia): 17400 nM | GI50 (A549 NSCLC): 1520 nM | TGI (A549 NSCLC): 15100 nM | GI50 (MCF7 breast): 18.2 nM | TGI (MCF7 breast): 1250 nM | GI50 (HS 578T breast): 19.5 nM | TGI (HS 578T breast): 188 nM | GI50 (OVCAR-8 ovarian): 113 nM | TGI (OVCAR-8 ovarian): 1020 nM | GI50 (HOP-92 NSCLC): 7.96 nM | TGI (HOP-92 NSCLC): 45.6 nM | GI50 (KM12 colon): 196 nM | TGI (KM12 colon): 1860 nM | GI50 (CCRF-CEM leukemia): 18.4 nM | TGI (CCRF-CEM leukemia): 4940 nM | GI50 (SF-539 CNS): 59.6 nM | TGI (SF-539 CNS): 333 nM | GI50 (SK-MEL-2 melanoma): 90.7 nM | TGI (SK-MEL-2 melanoma): 299 nM | GI50 (SN12C renal): 24.6 nM | TGI (SN12C renal): 1610 nM | GI50 (DU-145 prostate): 86.4 nM | TGI (DU-145 prostate): 6350 nM | GI50 (HL-60(TB) leukemia): 32 nM | TGI (HL-60(TB) leukemia): 295 nM | GI50 (SF-295 CNS): 105 nM | TGI (SF-295 CNS): 771 nM | GI50 (SK-MEL-28 melanoma): 58.7 nM | TGI (SK-MEL-28 melanoma): 509 nM | GI50 (HCT-15 colon): 43.1 nM | TGI (HCT-15 colon): 990 nM | GI50 (LOX IMVI melanoma): 69.4 nM | TGI (LOX IMVI melanoma): 429 nM | GI50 (UO-31 renal): 16.9 nM | TGI (UO-31 renal): 323 nM | GI50 (ACHN renal): 100 nM | TGI (ACHN renal): 1670 nM | GI50 (U251 CNS): 88.9 nM | TGI (U251 CNS): 610 nM | GI50 (SW-620 colon): 74.4 nM | TGI (SW-620 colon): 718 nM | GI50 (UACC-62 melanoma): 40.8 nM | TGI (UACC-62 melanoma): 185 nM | GI50 (SNB-19 CNS): 148 nM | TGI (SNB-19 CNS): 1080 nM | GI50 (SNB-75 CNS): 7.63 nM | TGI (SNB-75 CNS): 98.2 nM | GI50 (SK-OV-3 ovarian): 146 nM | TGI (SK-OV-3 ovarian): 873 nM | GI50 (A498 renal): 100 nM | TGI (A498 renal): 602 nM | GI50 (OVCAR-3 ovarian): 41.8 nM | TGI (OVCAR-3 ovarian): 353 nM | GI50 (SR leukemia): 48.9 nM | TGI (SR leukemia): 427 nM | GI50 (COLO 205 colon): 135 nM | TGI (COLO 205 colon): 869 nM | GI50 (NCI-H460 lung): 323 nM | TGI (NCI-H460 lung): 11400 nM | GI50 (TK-10 renal): 26.6 nM | TGI (TK-10 renal): 258 nM | GI50 (NCI-H226 lung): 106 nM | TGI (NCI-H226 lung): 1260 nM | GI50 (786-0 renal): 98.1 nM | TGI (786-0 renal): 695 nM | GI50 (NCI-H522 lung): 969 nM | TGI (NCI-H522 lung): 11000 nM | GI50 (M14 melanoma): 70.3 nM | TGI (M14 melanoma): 529 nM | GI50 (HCC-2998 colon): 291 nM | TGI (HCC-2998 colon): 1630 nM | GI50 (BT-549 breast): 23.6 nM | TGI (BT-549 breast): 258 nM | GI50 (RXF 393 renal): 30.1 nM | TGI (RXF 393 renal): 246 nM | GI50 (MOLT-4 leukemia): 15.9 nM | TGI (MOLT-4 leukemia): 166 nM | GI50 (IGROV1 ovarian): 18.7 nM | TGI (IGROV1 ovarian): 138 nM | GI50 (RPMI-8226 leukemia): 14.9 nM | TGI (RPMI-8226 leukemia): 90.6 nM | GI50 (HT29 colon): 80.1 nM | TGI (HT29 colon): 721 nM | GI50 (HCT-116 colon): 58.5 nM | TGI (HCT-116 colon): 282 nM | GI50 (HOP-62 NSCLC): 84.4 nM | TGI (HOP-62 NSCLC): 1040 nM | GI50 (T-47D breast): 9.98 nM | TGI (T-47D breast): 43.9 nM | GI50 (OVCAR-5 ovarian): 120 nM | TGI (OVCAR-5 ovarian): 7410 nM | GI50 (PC-3 prostate): 18.3 nM | TGI (PC-3 prostate): 817 nM | GI50 (MDA-MB-435): 85.2 nM | TGI (MDA-MB-435): 836 nM
